Assay results published in patent US10100051B2, “Compound of 5-hydroxyl-1,7-naphthyridine substituted by aryloxy or heteroaryloxy, preparation method thereof and pharmaceutical use thereof” (SHENYANG SUNSHINE PHARMACEUTICAL CO. LTD., priority 2015, dated 2018).
“And” between values parts separate entries of the source, which are not always exact repeats. Equal entries are not always repeated.

Tested on: male Balb/c mice
Assay: Effect on increasing erythrocyte of normal mice (reticulocyte count)
Assay type: in vivo
Design: unit not given here
Description: Biological Example 3: Effect of the Compounds of the Present Invention on Increasing Erythrocyte of Normal Mice
80 male Balb/c mice were divided into 11 groups, with 8 animals for each drug group, 10 animals for blank control group. Drug group: AKB-6548, 100 mg/kg, oral administration, once a day×3; FG-4592, 25 mg/kg, oral administration, once a day×3; EPO, 100 IU/kg, Day 1 and Day 3, subcutaneous injection, as positive control groups. Each of the compounds of the present invention was orally administrated at 25 mg/kg, once a day×3. Four hours after the last administration, orbital blood of all animals were collected and treated with EDTA-K2 anticoagulant, and reticulocytes (RETIC) were counted with a blood cell automated analyzer.

[1] = 25 mg/kg oral, once a day × 3, four hours after the last administration
[2] = 100 mg/kg oral, once a day × 3, four hours after the last administration
[3] = 100 IU/kg subcutaneous injection, Day 1 and Day 3, four hours after the last administration

| Compound | RETIC, Average [1] | RETIC, individual mice [1] | other results |
| --- | --- | --- | --- |
| Cc1nc(C(=O)NCC(=O)O)c(O)c2ccc(Oc3ccccc3)nc12 [Compound 1, 2-(5-hydroxy-8-methyl-2-phenoxy-1,7-naphthyridine-6-formamido) acetic acid] | 4.73 | 4.4 and 5.2 and 4.8 and 5 and 5.3 and 4.1 (2×) and 4.9 | – |
| Cc1nc(C(=O)NCC(=O)O)c(O)c2ccc(Oc3ccccc3)cc12 [FG-4592-A, reference compound] | 3.73 | 3.8 (2×) and 4 (2×) and 3.5 and 4.4 and 3.4 and 3.6 | – |
| O=C(O)CNC(=O)c1ncc(-c2cccc(Cl)c2)cc1O [AKB-6548-A, reference compound] | – | – | RETIC, Average [2]: 4.75; RETIC, individual mice [2]: 6.1 and 4 (2×) and 4.2 (2×) and 4.9 and 5.3 (2×) |
| COc1ccc(Oc2ccc3c(O)c(C(=O)NCC(=O)O)nc(C)c3n2)cc1 [Compound 14, 2-(5-hydroxy-2-(4-methoxyphenoxy)-8-methyl-1,7-naphthyridine-6-formamido) acetic acid] | 5.73 | 6.1 and 6.6 and 5.8 (2×) and 6.5 and 5.7 and 4.4 and 4.9 | – |
| Cc1nc(C(=O)NCC(=O)O)c(O)c2ccc(Oc3ccc4c(c3)OCCO4)nc12 [Compound 12, 2-(2-((2,3-dihydrobenzo[b][1,4]dioxo-6-yl)oxy)-5-hydroxy-8-methyl-1,7-naphthyridine-6-formamido) acetic acid] | 5.24 | 5.4 and 5 (3×) and 6 and 5.6 (2×) and 4.3 | – |
| EPO: erythropoietin, glycoprotein hormone; exogenous positive control given subcutaneously | – | – | RETIC, Average [3]: 3.73; RETIC, individual mice [3]: 5.9 and 2.5 and 2.2 (2×) and 2.6 and 4.3 and 5.1 and 5 |
